Patent publication US6495522B1, “Substituted alpha-hydroxy acid caspase inhibitors and the use thereof” (Cytovia, Inc., priority 1999, dated 2002)
pEC50, pIC50: −log10 of the molar value.

What was measured:
HeLa cells = test: Cell protection: HeLa cell death induced by TNF-α; assay type: cell-based; settings: TNF-α (25 ng/ml) and cycloheximide (30 μg/ml), 24 hours, calcein AM, read-out: EC50 for cytoprotection
Description: Cell protection activity was determined by examining the ability of S-2-methyl-1-(carbonyl-Asp-CH2F)propyl N-phenylcarbamate to block HeLa cell death induced by TNF-α. In this assay, 25,000 HeLa cells are seeded in 96-well plates 24 hours prior to testing. On the assay day, the cells are pre-incubated for 30 minutes with the test compound at eight different concentrations and the cells are then challenged with TNF-α (25 ng/ml) and cycloheximide (30 μg/ml) and incubated further for 24 hours. The dead cells are then removed by two PBS washes and 100 μL of a cell-mass indicator solution (calcein AM, final concentration 8 μM) is added. After a 20 minute incubation, the fluorescent signal is measured at 485/510 nm and the data are expressed as percent control, using control cultures treated only with cycloheximide.

rcaspase 3 = molecular target: T1, rcaspase 3 (Homo sapiens, UniProt P42574); test: Fluorometric caspase-3 enzyme assay; assay type: biochemical; settings: 2 ng rcaspase 3, 10 μM Ac-DEVD-AMC, 37° C., 30 minutes; read-out: IC50 as an inhibitor of caspase-3
T1 construct: purchased PharMingen (a Becton division company, San Diego, Calif.)
T1 sequence (P42574 29-175 limits assumed): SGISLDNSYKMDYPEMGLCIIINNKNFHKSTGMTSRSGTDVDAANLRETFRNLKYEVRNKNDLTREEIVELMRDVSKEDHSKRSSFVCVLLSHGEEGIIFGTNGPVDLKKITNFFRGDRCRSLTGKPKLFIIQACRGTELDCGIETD
T1 sequence (P42574 176-277 limits assumed): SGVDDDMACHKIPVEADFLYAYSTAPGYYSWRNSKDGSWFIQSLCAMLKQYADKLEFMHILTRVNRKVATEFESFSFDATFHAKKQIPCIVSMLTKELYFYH
Description: The activity of S-2-methyl-1-(carbonyl-Asp-CH2F)propyl N-phenylcarbamate as an inhibitor of caspase-3 was measured in a fluorometric enzyme assay. Enzyme activity was measured using synthetic peptide substrates attached to a fluorogenic leaving group. Cleavage of the synthetic substrate by the enzyme results in a fluorescent signal which is read in a spectrofluorometer or in a fluorometric microtiter plate reader.
12 concentrations of the test compound ranging from 30 pM to 10 μM were tested in the enzyme assay. The enzyme reaction was conducted in the presence of 2 ng rcaspase 3 (purchased from PharMingen, a Becton division company, San Diego, Calif.), various concentrations of test compound, 10 μM caspase 3 substrate Ac-DEVD-AMC (SEQ ID NO:1, purchased from Quality Controlled Biochemicals, Inc. Hopkinton, Mass.) and caspase buffer (20 mM PIPES, 100 mM NaCl, 10 mM DTT, 1 mM EDTA, 0.1% CHAPS and 10% sucrose, pH 7.2) in a total volume of 100 μL. The enzyme reaction was carried out in a 96-well plate and incubated at 37° C. for 30 minutes. The plate was then read with a fluorescence plate reader (EG&G WALLAG 1420-002) using excitation filter at 355 nm/emission filter at 460 nm.

pIC50 (rcaspase 3): 7.77
SMILES: CC(C)[C@H](OC(=O)Nc1ccccc1)C(=O)N[C@@H](CC(=O)O)C(=O)CF [Example 3, S-2-Methyl-1-(carbonyl-Asp-CH2F)propyl N-Phenylcarbamate]
pEC50 (HeLa cells): 6.82
